Results from patent US20210220368A1, “COMPOSITIONS COMPRISING TIMOLOL AND THEIR USE IN THE TREATMENT OF ROSACEA BY TOPICAL ADMINISTRATION” (Almirall, S.A., priority 2016, published 2021).

Legend:
[1] = test system: TPA-induced ear oedema; experiment: TPA-induced ear oedema model in Balb/c mice; assay type: in vivo; settings: timolol 1%, brimonidine 0.2% in acetone, topical, 30 min before and 15 min after TPA; ear weight at T+6 h; p<0.005
Procedure: Evaluation of the Anti-Oedema Effect of Timolol and Brimonidine after Two Topical Applications in the TPA-Induced Ear Oedema Model in Balb/c Mice.
The oedema is induced by means of a single application to the right ear of the mouse of 20 μl of a solution of TPA (phorbol 12-myristate 13-acetate) in acetone at 0.01%. The test compounds are diluted in acetone and applied 30 minutes before and 15 minutes after TPA. The weight of the mouse ears is measured at T+6 h and the weight of the left ear is subtracted from the one of the right ear.
Timolol was applied at a concentration of 1% before and after TPA application. The alpha agonist, brimonidine 0.2% was also tested for comparison.
Each group included 12 animals. Numbers above the bars indicate the percentage inhibition of the corresponding group of treated animals vs the control group.

[2] = test system: capsaicin-induced vasodilation; experiment: Vasodilation (erythema) induced by topical capsaicin in the ear of CD1 mice; assay type: in vivo, CD-1 mice; settings: timolol 1%, brimonidine 0.33%, oxymetazoline 0.88% solutions, topical to the ear before capsaicin; peak erythema 45 min after capsaicin, Mexameter
Procedure: Evaluation of the Effect of Topical Timolol, Brimonidine and Oxymetazoline in Vasodilation Induced by Topical Application of Capsaicin in the Ear of CD1 Mice
Neurogenic skin inflammation was induced by capsaicin (Alacapsin 0.075% cream) on the ear of CD-1 mice. Capsaicin induces the release of neuropeptides most of which have vasodilatory properties. In this model vasodilation is evaluated with a narrowband spectrophotometer probe (Mexameter) that measures peak absorption of haemoglobin. The quantity of light absorbed by the skin is calculated as Mexameter® arbitrary units, and this measure of erythema can be considered a surrogate of vasodilation. […] Treatment effects are reported at this maximal induction of erythema.
Timolol 1%, brimonidine 0.33% and oxymetazoline 0.88% solutions were applied topically to the mouse ear before capsaicin induction.
Results described represent peak erythema of four groups of animals and are reported as mexameter arbitrary units. Each group included 6-12 animals. Numbers above the bars indicate the percentage inhibition of the corresponding group vs the capsaicin control group.

[3] = test system: TPA-induced ear oedema; settings: topical brimonidine 0.2%, mice; Piwnica et al., J. Dermatol. Sci. 2014; cited from earlier work
[4] = test system: erythematotelangiectatic rosacea; settings: topical timolol, human subjects with erythematotelangiectatic rosacea; Jaque et al., Rev. Chilena Dermatol 2012; cited from earlier work

| Compound | inhibition of ear oedema vs control group [1] | percentage inhibition of ear vasodilation (erythema) vs capsaicin control group [2] [%] | inhibition of TPA-induced ear oedema [3] [%] | clinical benefit [4] |
| --- | --- | --- | --- | --- |
| Brc1c(NC2=NCCN2)ccc2nccnc12 [brimonidine] | around 50% | 56 | 50 | – |
| Cc1cc(C(C)(C)C)c(O)c(C)c1CC1=NCCN1 [oxymetazoline] | – | 60 | – | – |
| CC(C)(C)NC[C@H](O)COc1nsnc1N1CCOCC1 [timolol, (S)-1-(tert-butylamino)-3-[(4-morpholin-4-yl-1,2,5-thiadiazol-3-yl)oxy]propan-2-ol] | around 50% | 44 | – | no clinical benefit |
